Laboratory results from patent publication US12448655B2, “Antibiotic susceptibility of microorganisms and related methods and systems” (CALIFORNIA INSTITUTE OF TECHNOLOGY, priority 2017, dated 2025).

Legend:
Klebsiella pneumoniae = experiment: Minimum inhibitory concentrations (MICs) of Enterobacteriaceae clinical isolates; format: cell-based
Source text: (§1) Clinical isolates referenced, minimum inhibitory concentrations (MICs), and categorical susceptibility based on CLSI breakpoints The below list of organisms are examples of clinically-relevant susceptible and resistant Enterobacteriaceae clinical isolates. Minimum inhibitory concentrations (MICs) are provided in μg/mL for the antibiotics listed.
(§2) Isolates, growth conditions, and antibiotic exposure conditions. 25 de-identified clinical isolates were obtained from the UCLA Clinical Microbiology Laboratory (CML) and the CDC's Enterobacteriaceae Carbapenem Breakpoint panel. In the case of isolates obtained from the UCLA CML, MICs were determined as described previously. Genotypic testing of the two Ec and two Kp isolates selected for their lack of known β-lactamase genes was performed by UCLA CML using a previously published assay and separately at the Keck School of Medicine of USC using the FDA-approved Cepheid Xpert® Carba-R test. Whole genome sequencing of the single Ebs isolate selected for its lack of known resistance genes was performed by the CDC [3]. All isolates were stored as glycerol stocks at −80° C. Glycerol stocks were streaked onto Trypticase Soy Agar with 5% sheep's blood (Becton Dickinson, Franklin Lakes, NJ, USA) and grown overnight at 37° C. Prior to experiments, a small clump of cells was resuspended in 2 mL Brain Heart Infusion Broth (BHI, Becton Dickinson) at 37° C.+5% CO2 with 500 rpm shaking for 2 to 4 h until visibly turbid. OD600 of the cultures was then measured, and working cultures prepared at an OD600 of 0.01-0.07 and grown for 50-145 min at 37° C.+5% CO2 with 500 rpm. Working cultures were then diluted 10× into control and treated aliquots for antibiotic exposure. For validation experiments, antibiotic exposure was performed in 100 μL volumes consisting of 80 μL Mueller Hinton II Broth (Becton Dickinson), 5 μL nuclease-free H2O (NF—H2O), 5 μL 20× antibiotic stock solution, and 10 μL of working culture. In control aliquots, antibiotic stock solution was replaced with NF—H2O. For filtration experiments, antibiotic exposure was performed in 100 μL volumes consisting of 65 μL Mueller Hinton II Broth (Becton Dickinson), 21 μL nuclease-free H2O (NF—H2O), 4 μL 25× antibiotic stock solution, and 10 μL of working culture. In control aliquots, antibiotic stock solution was replaced with NF—H2O.

Escherichia coli = experiment: as above; format: cell-based
Source text: as §1, §2

Neisseria gonorrhoeae = experiment: Minimum inhibitory concentrations (MICs) of Neisseria gonorrhoeae clinical isolates; format: cell-based
Description: Isolates and agar-dilution MIC testing. Isolates were provided by the University of Washington Neisseria Reference Laboratory and the Centers for Disease Control (CDC) Antibiotic Resistance Isolate Bank Neisseria gonorrhoeae panel (SINuca-Table). MICs of the CDC AR Isolate Bank are reported by the CDC [10], and MIC of all other isolates were determined by agar dilution according to the Clinical and Laboratory Standards Institute (CLSI) guidelines.

E. coli isolates [1] = experiment: pol-aAST, comparison of LAMP and qPCR amplification (Example 26); format: cell-based, Escherichia coli; settings: 0.5 μg/mL ertapenem for 15 min
Description: Comparison of amplification methods. In order to compare amplification using LAMP and PCR, E. coli isolates were exposed to 0.5 μg/mL ertapenem for 15 min. Samples were then transferred directly into either PCR or LAMP mix on ice. Amplification was started immediately. Quantitative PCR (qPCR) was performed on a Roche LightCycler 96 using SsoFast EvaGreen Supermix (BioRad, Hercules, CA, USA). 10 μL reactions were used. 10% of the final reaction volume was template. Published primers were used at a final concentration of 500 nM. Cycling conditions consisted of 3.0 min at 95° C., followed by 35 cycles of 95° C. for 10 sec, 60° C. for 10 sec, and 72° C. for 15 sec. Fluorescence was measured using the SYBR Green channel after each 72° C. extension step. LAMP was performed on a BioRad CFX96 using the following conditions: 10 μL reaction volume containing 1× Isothermal Reaction Buffer II (NEB), 5 mM MgSO4 (NEB), 1.4 mM dNTPs (NEB), 320 U/mL Bst 3.0 (NEB), and 2 μM Syto-9 (Thermo Fisher). 10% of the reaction volume was template. Primer sequences and concentrations have been described previously. Cycling conditions consisted of 2.0 min at 12° C. (while lid was heating), followed by 120 cycles of 70° C. for 10 sec. Fluorescence was measured using the SYBR Green channel every 10 sec (after each cycle).
To test this, pol-aAST is performed in this example using LAMP, and quantitative PCR (qPCR) (FIG. 48). […]

E. coli isolates [2] = experiment: Quantification of DNA release following antibiotic exposure, filtration and ddPCR (Example 27); format: cell-based, Escherichia coli; design: dose or concentration left out as unconfirmed; settings: 15 min exposure, 0.22 μm filtration, ddPCR
Description: Filtration experiments. Filtration experiments were performed using E. coli isolates exposed to 0.5 μg/mL ertapenem for 15 min. Immediately following exposure, cultures were passed through 0.22 μm, 1.5 mL cellulose acetate centrifuge tube filters (Corning Costar Spin-X, Corning, NY) by adding 50 μL of sample to the filter and centrifuging for 4 minutes at 1000 ref. DNA was extracted from both the feed and filtrate using QuickExtract DNA Extraction Solution (Lucigen, Middleton, WI, USA). Samples were diluted 10× into extraction buffer and extracted according to manufacturer instructions. The concentration of the single copy E. coli uidA gene was then quantified in the feed and filtrate extractions. The percentage of E. coli DNA in the filtrate was calculated as the filtrate concentration divided by the feed concentration. Droplet digital PCR (ddPCR) was performed using QX200 ddPCR Supermix for EvaGreen (BioRad). 10% of the final reaction volume was template. Published primers targeting the uidA gene in E. coli were used at a final concentration of 500 nM. Cycling conditions consisted of 5.0 min at 95° C., followed by 40 cycles of 95° C. for 30 sec, 60° C. for 30 sec, and 72° C. for 30 sec., with final dye stabilization steps of 4° C. for 5.0 min followed by 90° C. for 5.0 min.
To investigate the mechanism of pol-aAST, experiments were performed to separate free NAs from NAs contained within structurally intact cells or associated with cell debris. Susceptible and resistant clinical isolates were exposed to β-lactams for 15 min, then filtered through […] filters to remove cells from free NAs. NAs in the sample and eluate were then quantified using droplet digital PCR (ddPCR).

Ng isolates = experiment: Percentage of cell lysis due to enhancer alone (Example 33); format: cell-based, Neisseria gonorrhoeae; settings: Ng clinical isolates (12 for BAC); no antibiotic
Description: Enhancer use. Working cultures of Ng isolates were prepared as described in “Ng culture preparation.” Initial exposure was performed by incubating 100 μL control and treated samples at 37° C. in PCR tube strips on a BioRad C1000 Thermal Cycler. Treated samples consisted of 75 μL MHB, 5 μL NaHCO3 (100 mM), 5 μL DNase I (2 U/μL), 5 μL PEN or CRO (20 μg/mL), and […] working Ng isolate culture. ABX were replaced with NF—H2O in control samples. After 15 min of incubation, samples were vortexed and quick-spun, and aliquots of all samples were transferred to the enhancement step as described below. After the enhancement step, 5 or 10 μL of all samples were extracted by diluting 10× in QuickExtract DNA Extraction Solution (Lucigen) and heating for 6 min at 65° C. followed by 4 min at 98° C. on a BioRad C1000 Thermal Cycler. All sample handling following ABX exposure was performed using a multichannel pipette; qPCR and calculation of % accessibility was performed as described above.
Osmotic and autolytic enhancing steps were performed in 100 μL volumes. The osmotic enhancing step consisted of 89.75 μL NF—H2O, 4.75 μL DNase I (2 U/μL), 0.5 μL CaCl (100 mM, 0.2-μM filtered), and 5 μL initial exposure samples. […]

CC1(C)S[C@@H]2[C@H](NC(=O)[C@H](N)c3ccccc3)C(=O)N2[C@H]1C(=O)O [AMP, ampicillin]
Antibiotic MICs (Klebsiella pneumoniae; isolate Kp_7): >32 µg/mL | Antibiotic MICs (Klebsiella pneumoniae; isolate Kp_8): >32 µg/mL | Antibiotic MICs (Escherichia coli; isolate Ec_1): 4 µg/mL | Antibiotic MICs (Escherichia coli; isolate Ec_2): <=2 μg/mL | Antibiotic MICs (Escherichia coli; isolate Ec_3): <=2 μg/mL | Antibiotic MICs (Escherichia coli; isolate Ec_4): <=2 μg/mL | Antibiotic MICs (Escherichia coli; isolate Ec_39): >=32 μg/mL | Antibiotic MICs (Escherichia coli; isolate Ec_40): >=32 μg/mL

C=CC1=C(C(=O)O)N2C(=O)[C@@H](NC(=O)/C(=N\OCC(=O)O)c3csc(N)n3)[C@H]2SC1 [CFM, cefixime]
Antibiotic MICs (Neisseria gonorrhoeae; isolate ng_1): ≤0.015 µg/mL | Antibiotic MICs (Neisseria gonorrhoeae; isolate ng_2): ≤0.015 µg/mL | Antibiotic MICs (Neisseria gonorrhoeae; isolate ng_3): ≤0.015 µg/mL | Antibiotic MICs (Neisseria gonorrhoeae; isolate ng_4): 0.060 µg/mL | Antibiotic MICs (Neisseria gonorrhoeae; isolate ng_5): 0.030 µg/mL | Antibiotic MICs (Neisseria gonorrhoeae; isolate ng_6): 0.015 µg/mL | Antibiotic MICs (Neisseria gonorrhoeae; isolate ng_12): 0.030 µg/mL | Antibiotic MICs (Neisseria gonorrhoeae; isolate ng_15): ≤0.015 µg/mL | Antibiotic MICs (Neisseria gonorrhoeae; isolate ng_16): ≤0.015 µg/mL | Antibiotic MICs (Neisseria gonorrhoeae; isolate ng_17): ≤0.015 µg/mL | Antibiotic MICs (Neisseria gonorrhoeae; isolate ng_18): 0.060 µg/mL | Antibiotic MICs (Neisseria gonorrhoeae; isolate ng_19): 0.030 µg/mL | Antibiotic MICs (Neisseria gonorrhoeae; isolate ng_20): ≤0.015 µg/mL | Antibiotic MICs (Neisseria gonorrhoeae; isolate ng_30): 1.000 µg/mL | Antibiotic MICs (Neisseria gonorrhoeae; isolate ng_41): 0.250 µg/mL | Antibiotic MICs (Neisseria gonorrhoeae; isolate ng_44): ≤0.015 µg/mL

C[C@@H](O)[C@H]1C(=O)N2C(C(=O)O)=C(S[C@@H]3CN[C@H](C(=O)Nc4cccc(C(=O)O)c4)C3)[C@H](C)[C@H]12 [ETP, ertapenem]
time-to-positive difference (TTPD) between control and treated aliquots, LAMP (E. coli isolates [1]; susceptible E. coli isolate): 1.02 min | difference in Cq between control and treated samples, qPCR (E. coli isolates [1]; two susceptible and two resistant E. coli isolates): none of which showed a statistically significant difference in Cq | Antibiotic MICs (Klebsiella pneumoniae; isolate Kp_1): <=.5 μg/mL | Antibiotic MICs (Klebsiella pneumoniae; isolate Kp_2): <=.5 μg/mL | Antibiotic MICs (Klebsiella pneumoniae; isolate Kp_7): >8 µg/mL | Antibiotic MICs (Klebsiella pneumoniae; isolate Kp_8): >8 µg/mL | Antibiotic MICs (Escherichia coli; isolate Ec_1): <=.5 μg/mL | Antibiotic MICs (Escherichia coli; isolate Ec_2): <=.5 μg/mL | Antibiotic MICs (Escherichia coli; isolate Ec_3): <=.5 μg/mL | Antibiotic MICs (Escherichia coli; isolate Ec_4): <=.5 μg/mL | Antibiotic MICs (Escherichia coli; isolate Ec_38): >4 µg/mL | Antibiotic MICs (Escherichia coli; isolate Ec_39): 2 µg/mL | Antibiotic MICs (Escherichia coli; isolate Ec_40): 2 µg/mL | Antibiotic MICs (Escherichia coli; isolate Ec_41): 2 µg/mL | average percentage of DNA released from susceptible isolates (E. coli isolates [2]): 15%

C[C@@H](O)[C@H]1C(=O)N2C(C(=O)O)=C(S[C@@H]3CN[C@H](C(=O)N(C)C)C3)[C@H](C)[C@H]12 [meropenem]
average percentage of DNA released from susceptible isolates (E. coli isolates [2]): 21%

benzalkonium chloride [BAC]
average percentage lysis by 5-min incubation with the enhancer alone (Ng isolates): 91.6%
